Patent US7494821B2, “Fluorescein based sensors for tracking nitric oxide in live cells” (Massachusetts Institute of Technology, priority 2005, dated 2009)

Assays:
[1] = Stability of nitrosated ligand at pH 7.0; assay type: physicochemical
From the text: High resolution MS of FL5-^14NO and FL-^15NO were also obtained, showing m/z=600.0729 for FL5-^14NO and 601.0736 for FL5-^15NO, corresponding to [FL5+NO−H+Cl]^− (calcd. m/z 600.0729 and 601.0700).

Quantum yield = assay type: physicochemical
From the text: Quantum yield may be obtained by comparison of the integrated area of the corrected emission spectrum of the sample with that of a reference solution. A preferred reference solution is a solution of fluorescein in 0.1 N NaOH, quantum efficiency 0.95. The concentration of the reference is adjusted to match the absorbance of the test sample. The quantum yields may be calculated using the following equation.
Upon addition of excess NO, a 499 nm peak in the UV-vis spectrum of Cu(FL5) in pH 7.0 buffered solution red-shifted back to the λmax characteristic of FL5 or the synthetic FL5−NO compound (504 nm), which differs from the band formed in the reaction of FL5 with 1 equivalent of Cu(I) added as [Cu(CH3CN)4](BF4) (506 nm). […] In addition, the spectrum of the NO reaction solution closely resembled that of the monoanionic fluorescein formed by lowering the pH from 7.0 to 5.0. […] These values are in the range previously reported for N-nitrosamines. The presence of two separate chemical shifts might arise from different isomers in solution, the Δδ of 2.29 being similar to that of previously reported of N-nitrosamines. […] Lastly, FL5−NO is brighter than FL5 or Cu(FL5), the respective quantum yields being ΦFL-NO=0.58±0.02 and ΦFL=0.077±0.002.

[2] = tested on: SK-N-SH human neuroblastoma cells; assay: Detection of NO produced by cNOS in SK-N-SH cells (fluorescence imaging); assay type: cell-based; conditions: estradiol-stimulated neuroblastoma cells
Procedure: FIG. 7 illustrates Cu(FL5) detection of NO produced by cNOS. (a) NO detection in SK-N-SH cells by Cu(FL5). Left to right: 25 min incubation of Cu(FL5) (1 μM) and 5, 10, 15, 25 min after co-treatment of Cu(FL5) (1 μM) and 17β-estradiol (100 nM). Images were taken with a Nikon Eclipse TS100 microscope after removing the DMEM media and washing the cells with PBS. Top: fluorescence images; bottom: phase contrast images. (b) Fluorescence intensity (F(t)/FCu(FL5)) from a was plotted against incubation time. (c) NO production with or without of L-NNA. Right: NO detection in cells after 10 min co-incubation of Cu(FL5) (1 μM) and 17β-estradiol (100 nM). Left: NO detection in cells pre-treated with L-NNA for 1 h before addition of Cu(FL5) and 17β-estradiol.
We investigated the ability of Cu(FL5) to detect NO produced in SK-N-SH human neuroblastoma cells under physiological conditions, since constitutive NO synthase (“cNOS”) in this cell line can be activated by estrogen to produce NO. Estrogen administration leads to an increase in the cytosolic Ca(II) concentration that alters the structure of calmodulin, which in turn activates cNOS. The NO-dependent fluorescence response, monitored after simultaneous administration of 17β-estradiol (100 nM) and Cu(FL5) (1 μM) to the cells, was completed within 5 min with a 4.0±0.6-fold increase in fluorescence (FIGS. 5a and b). […] As another control, HeLa cells were co-treated with 17β-estradiol (100 nM) and Cu(FL5) (1 μM).
Raw 264.7, SK-N-SH, and HeLa cells were purchased from the American Type Culture Collection (ATCC). All three cell lines were maintained in Dulbecco's modified Eagles' media (DMEM) (GibcoBRL) containing 10% (v/v) heat-inactivated fetal bovine serum (FBS) (HyClone), 1 mM sodium pyruvate (Sigma), 100 units/ml penicillin, 100 μg/ml streptomycin (Invitrogen), and 0.1 mM nonessential amino acid solution for minimal essential medium (Sigma). All cells were grown at 37° C. in a humidified atmosphere of 10% CO2. A nitrite assay was performed with Griess reagents (Promega) on Raw 264.7 cells grown in DMEM free of phenol red. Calcium sensor fluo-4 AM was purchased from Invitrogen. MTT [3-(4,5-dimethylthiazol-2-yl)-2,5-diphenyltetrazolium bromide] (Sigma-Aldrich) assay was described in Supplementary information. The expression of iNOS in Raw 264.7 cells was analyzed by Western blot on the extracts of cells stimulated by LPS and INF-γ. The protein was silenced by short hairpin RNA-induced RNAi and the resulting cell lines were used in fluorescence imaging by Cu(FL5).

[3] = Fluorescence response to NO in buffered aqueous solution
Procedure: FIG. 5 depicts the fluorescence response of Cu(FL5) to NO. Fluorescence emission spectra (λex=503 nm) of a deoxygenated 1 μM solution of Cu(FL5) in buffered solution (50 mM PIPES, pH 7.0, 100 mM KCl) before (dashed line), immediately, 1, 2 and 5 min after (solid lines) admission of 1300 equiv of NO (g) at 37° C.
The fluorescence of a 1 μM FL5 solution was diminished by 18±3% upon introduction of an equimolar quantity of CuCl2 at 37° C. Addition of excess NO to a buffered aqueous Cu(FL5) solution led to an immediate 11.2±1.5-fold increase in fluorescence (FIG. 5). […] The lower detection limit for NO is 5 nM.
A commercially available NO probe, DAF-2 (o-diaminofluorescein), was used for comparison with Cu(FL5). The fluorescence of DAF-2 is unchanged in the presence of NO and the absence of O2 over a period of 1 h.
As depicted in FIG. 4, NO detection by Cu(FL5) occurs, formally, by nitric oxide-induced reduction of Cu(II) to Cu(I), forming NO^+, which nitrosates the ligand with concomitant dissociation from copper and fluorescence turn-on. The mechanism of turn-on emission of Cu(FL5) by NO was investigated by EPR, UV-vis, NMR and fluorescence spectroscopy and by liquid chromatography-mass spectrometry (LC-MS, low resolution MS).

Molecule: Cc1ccc2cccc(N(Cc3c(O)ccc4c(-c5ccccc5C(=O)O)c5cc(Cl)c(=O)cc-5oc34)N=O)c2n1 [FL5−NO, 2-{2-chloro-6-hydroxy-5-[((2-methylquinolin-8-yl)(nitroso)amino)-methyl]-3-oxo-3H-xanthen-9-yl}-benzoic acid]
- stability [1]: stable for several days
- quantum yield Φ (Quantum yield): 0.58±0.02

Molecule: CC(=O)Oc1ccc2c(c1)Oc1cc(OC(C)=O)ccc1C21OC(=O)c2cc(N)c(N)cc21 [DAF-2 DA, o-diaminofluorescein diacetate, reference compound]
- fluorescence increase of treated cells 30 min after activation of cNOS [2]: only a slight fluorescence increase

Molecule: o-diaminofluorescein [DAF-2, reference compound]
- fluorescence in the presence of NO when O2 is present [3]: turn-on fluorescence
- fluorescence in the presence of NO and the absence of O2 ([3]; over a period of 1 h): unchanged
